Measurements as given in US20240059691A1 (KALVISTA PHARMACEUTICALS LIMITED, priority 2020, published 2024).

Target: Human Factor XIIa (Homo sapiens (Human), UniProt P00748)
Test: Determination of FXIIa inhibition (fluorogenic substrate H-DPro-Phe-Arg-AFC, IC50 assay)
Type: biochemical
Settings: substrate H-DPro-Phe-Arg-AFC at Km, 25° C.; class scale A-G
Protocol: Determination of FXIIa Inhibition
In vitro inhibition of Factor XIIa was determined using an IC50 assay based on standard literature methods (see e.g Baeriswyl et al., ACS Chem. Biol., 2015, 10 (8) 1861; Bouckaert et al., European Journal of Medicinal Chemistry 110 (2016) 181). Human Factor XIIa (Enzyme Research Laboratories) was incubated at 25° C. with the fluorogenic substrate H-DPro-Phe-Arg-AFC (Peptide Protein Science) and various concentrations of the test compound. Protease activity was measured by monitoring the accumulation of liberated fluorescence from the substrate over 5 min at 25° C. The linear rate of fluorescence increase per minute was expressed as percentage (%) activity. The Km for the cleavage of the substrate by FXIIa was determined by standard transformation of the Michaelis-Menten equation. The compound inhibitor assays were performed at substrate Km concentration. IC50 values were calculated as the concentration of inhibitor giving 50% inhibition (IC50) of the uninhibited enzyme activity (100%).

Chain of Human Factor XIIa (P00748 373-615): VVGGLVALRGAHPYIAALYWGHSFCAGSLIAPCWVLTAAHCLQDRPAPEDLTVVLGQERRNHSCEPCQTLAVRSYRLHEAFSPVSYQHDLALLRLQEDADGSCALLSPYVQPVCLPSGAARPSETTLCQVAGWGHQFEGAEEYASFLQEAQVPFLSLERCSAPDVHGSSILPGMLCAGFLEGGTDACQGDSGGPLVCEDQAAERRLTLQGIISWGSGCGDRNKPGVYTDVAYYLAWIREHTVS

Compound | IC50
Nc1ncc(Cl)c2cc(NCc3ccc(OCC4CCn5ccnc5C4)nc3)ccc12 (stereo not shown) [Example 1041, 4-Chloro-N6-[[6-(5,6,7,8-tetrahydroimidazo[1,2-a]pyridin-7-ylmethoxy)-3-pyridyl]methyl]isoquinoline-1,6-diamine] | 300 to 1000 nM
COCC1c2nnc(C(F)(F)F)n2CCN1c1cc(C)c(CNc2cccc3c(N)nccc23)cn1 (single isomer, unassigned) [Example 1343, (S*)-N5-((6-(8-(methoxymethyl)-3-(trifluoromethyl)-5,6-dihydro-[1,2,4]triazolo[4,3-a]pyrazin-7(8H)-yl)-4-methylpyridin-3-yl)methyl)isoquinoline-1,5-diamine] | 3000 to 10000 nM
Nc1nccc2cc(NCc3cccc(CN4CCCC4)c3)ccc12 [Example 4287, 6-N-{[3-(pyrrolidin-1-ylmethyl)phenyl]methyl}isoquinoline-1,6-diamine] | 10000 to 40000 nM
Nc1nccc2cc(NCc3ccnc(OCC4CCn5cnnc5C4)c3)ccc12 (stereo not shown) [Example 4411, 6-N-[(2-{5H,6H,7H,8H-[1,2,4]triazolo[4,3-a]pyridin-7-ylmethoxy}pyridin-4-yl)methyl]isoquinoline-1,6-diamine] | 300 to 1000 nM
CN1CC2(CC(OCc3ccc(CNc4ccc5c(N)nccc5c4)c(F)c3)CS2)C1 (stereo not shown) [Example 2252, 6-N-({2-fluoro-4-[({2-methyl-5-thia-2-azaspiro[3.4]octan-7-yl}oxy)methyl]phenyl}methyl)isoquinoline-1,6-diamine] | 300 to 1000 nM
CN1CCC(CCc2cccc(CNc3ccc4c(N)nccc4c3)c2)CC1 [Example 4410, 6-N-({3-[2-(1-methylpiperidin-4-yl)ethyl]phenyl}methyl)isoquinoline-1,6-diamine] | 300 to 1000 nM
CCC1c2nnc(C(F)(F)F)n2CCN1c1cc(C)c(CNc2cccc3c(N)nccc23)cn1 (single isomer, unassigned) [Example 1320, (R*)-N5-((6-(8-ethyl-3-(trifluoromethyl)-5,6-dihydro-[1,2,4]triazolo[4,3-a]pyrazin-7(8H)-yl)-4-methylpyridin-3-yl)methyl)isoquinoline-1,5-diamine] | 10000 to 40000 nM
Nc1nccc2c(NCc3ccc(N4CCn5c(nnc5C(F)(F)F)C4)cc3F)cccc12 [Example 2256, N5-(2-Fluoro-4-(3-(trifluoromethyl)-5,6-dihydro-[1,2,4]triazolo[4,3-a]pyrazin-7(8H)-yl)benzyl)isoquinoline-1,5-diamine] | 10 to 100 nM
CC1c2nnc(C(F)(F)F)n2CCN1c1cnc(CNc2cccc3c(N)nccc23)c(F)c1 (stereo not shown) [Example 9008, N5-((3-fluoro-5-(8-methyl-3-(trifluoromethyl)-5,6-dihydro-[1,2,4]triazolo[4,3-a]pyrazin-7(8H)-yl)pyridin-2-yl)methyl)isoquinoline-1,5-diamine] | 10 to 100 nM
CCc1cc2c(NCc3ccc(NCC4CCN(C)CC4)nc3)ccnc2[nH]1 [Example 1239, 2-ethyl-N-((6-(((1-methylpiperidin-4-yl)methyl)amino)pyridin-3-yl)methyl)-1H-pyrrolo[2,3-b]pyridin-4-amine] | 10000 to 40000 nM
CN1CCC(COc2cc(CN(C)c3cccc4c(N)nccc34)ccn2)CC1 [Example 4419, N5-methyl-N5-((2-((1-methylpiperidin-4-yl)methoxy)pyridin-4-yl)methyl)isoquinoline-1,5-diamine] | 3000 to 10000 nM
CC(C)(O)CN1CCC(COc2ccc(CNc3ccc4c(N)nccc4c3)cn2)CC1 [Example 1017, 1-(4-(((5-(((1-aminoisoquinolin-6-yl)amino)methyl)pyridin-2-yl)oxy)methyl)piperidin-1-yl)-2-methylpropan-2-ol] | 300 to 1000 nM
Nc1nccc2cc(NCc3ccc(OCC4CCn5cc(C(F)(F)F)nc5C4)nc3)ccc12 (stereo not shown) [Example 1028, N6-((6-((2-(trifluoromethyl)-5,6,7,8-tetrahydroimidazo[1,2-a]pyridin-7-yl)methoxy)pyridin-3-yl)methyl)isoquinoline-1,6-diamine] | 1000 to 3000 nM
Nc1nccc2cc(NCc3ccnc(N4CCn5c(nnc5C(F)(F)F)C4)c3)ccc12 [Example 4471, N6-((2-(3-(trifluoromethyl)-5,6-dihydro-[1,2,4]triazolo[4,3-a]pyrazin-7(8H)-yl)pyridin-4-yl)methyl)isoquinoline-1,6-diamine] | 10000 to 40000 nM
COCC1c2nnc(C(F)(F)F)n2CCN1c1cc(C)c(CNc2cccc3c(N)nccc23)cn1 (single isomer, unassigned) [Example 1344, (R*)-N5-((6-(8-(methoxymethyl)-3-(trifluoromethyl)-5,6-dihydro-[1,2,4]triazolo[4,3-a]pyrazin-7(8H)-yl)-4-methylpyridin-3-yl)methyl)isoquinoline-1,5-diamine] | 10 to 100 nM
CN1CCN(CCc2ccc(CNc3ccc4c(N)nccc4c3)cc2)CC1 [Example 2180, 6-N-({4-[2-(4-methylpiperazin-1-yl)ethyl]phenyl}methyl)isoquinoline-1,6-diamine] | 300 to 1000 nM
CC(C)N1CCC(OCc2cc(CNc3ccc4c(N)ncc(Cl)c4c3)ccn2)CC1 [Example 4296, 4-chloro-6-N-[(2-{[(1-isopropylpiperidin-4-yl)oxy]methyl}pyridin-4-yl)methyl]isoquinoline-1,6-diamine] | 1000 to 3000 nM

The remaining lines, values ahead:

IC50 | Compound
300 to 1000 nM | CN1CCC(OCc2ccc(S(=O)(=O)Nc3ccc4c(N)nccc4c3)cc2)CC1 [Example 2210, N-(1-aminoisoquinolin-6-yl)-4-(((1-methylpiperidin-4-yl)oxy)methyl)benzenesulfonamide]
3000 to 10000 nM | CN1CCN(CCc2cccc(CNc3ccc4c(N)nccc4c3)c2)CC1 [Example 4288, 6-N-({3-[2-(4-methylpiperazin-1-yl)ethyl]phenyl}methyl)isoquinoline-1,6-diamine]
300 to 1000 nM | CN1CCC(OCc2ccc(CN(C)c3ccc4cnccc4c3)cc2)CC1 [Example 2204, N-methyl-N-[(4-{[(1-methylpiperidin-4-yl)oxy]methyl}phenyl)methyl]isoquinolin-6-amine]
10000 to 40000 nM | CN1CCC(COc2ccc(CNc3cccc4c(N)ncnc34)cn2)CC1 [Example 1022, N8-[[6-[(1-methyl-4-piperidyl)methoxy]-3-pyridyl]methyl]quinazoline-4,8-diamine]
10000 to 40000 nM | CN1CCC(CNc2ccc(CNc3cc(C(F)(F)F)cc4[nH]ccc34)cn2)CC1 [Example 1237, N-((6-(((1-methylpiperidin-4-yl)methyl)amino)pyridin-3-yl)methyl)-6-(trifluoromethyl)-1H-indol-4-amine]
300 to 1000 nM | CCc1nc(N2CCn3c(nnc3C(F)(F)F)C2)ccc1CNc1cccc2c(N)nccc12 [Example 1336, N5-((2-ethyl-6-(3-(trifluoromethyl)-5,6-dihydro-[1,2,4]triazolo[4,3-a]pyrazin-7(8H)-yl)pyridin-3-yl)methyl)isoquinoline-1,5-diamine]
300 to 1000 nM | CC(=O)N1CCC(OCc2ccc(CNc3ccc4c(N)nccc4c3)c(F)c2)CC1 [Example 2200, 1-(4-((4-(((1-aminoisoquinolin-6-yl)amino)methyl)-3-fluorobenzyl)oxy)piperidin-1-yl)ethan-1-one]
10 to 100 nM | Cc1cc(N2CCn3c(nnc3C(F)(F)F)C2C)cnc1CNc1cccc2c(N)nccc12 (stereo not shown) [Example 9007, N5-((3-methyl-5-(8-methyl-3-(trifluoromethyl)-5,6-dihydro-[1,2,4]triazolo[4,3-a]pyrazin-7(8H)-yl)pyridin-2-yl)methyl)isoquinoline-1,5-diamine]
3000 to 10000 nM | Nc1nccc2cc(NCc3ccc(OCc4ccncc4)nc3)ccc12 [Example 1014, 6-N-{[6-(pyridin-4-ylmethoxy)pyridin-3-yl]methyl}isoquinoline-1,6-diamine]
100 to 300 nM | Nc1nccc2cc(NCc3ccc(OCC4CCNCC4)nc3)ccc12 [Example 1016, 6-N-{[6-(piperidin-4-ylmethoxy)pyridin-3-yl]methyl}isoquinoline-1,6-diamine]
300 to 1000 nM | CN1CCC(F)(COc2cc(CNc3ccc4c(N)nccc4c3)ccn2)CC1 [Example 4415, 6-N-({2-[(4-fluoro-1-methylpiperidin-4-yl)methoxy]pyridin-4-yl}methyl)isoquinoline-1,6-diamine]
300 to 1000 nM | Cn1ccnc1CCCOc1ccc(CNc2ccc3c(N)nccc3c2)cn1 [Example 1025, 6-N-({6-[3-(1-methylimidazol-2-yl)propoxy]pyridin-3-yl}methyl)isoquinoline-1,6-diamine]
10000 to 40000 nM | CN1CCC(COc2cc(CNc3ccc4c(N)ncnc4c3)ccn2)CC1 [Example 4263, 7-N-({2-[(1-methylpiperidin-4-yl)methoxy]pyridin-4-yl}methyl)quinazoline-4,7-diamine]
300 to 1000 nM | CN1CCN(Cc2ccc(CNc3ccc4c(N)nccc4c3)cc2)CC1 [Example 1007, 6-N-({4-[(4-methylpiperazin-1-yl)methyl]phenyl}methyl)isoquinoline-1,6-diamine]
100 to 300 nM | Nc1nccc2c(NCc3cc(N4CCn5c(nnc5C(F)(F)F)C4)cs3)cccc12 [Example 8459, N5-((4-(3-(Trifluoromethyl)-5,6-dihydro-[1,2,4]triazolo[4,3-a]pyrazin-7(8H)-yl)thiophen-2-yl)methyl)isoquinoline-1,5-diamine]
300 to 1000 nM | CN1CCC(CCc2cc(CNc3ccc4c(N)nccc4c3)ccn2)CC1 [Example 4409, 6-N-({2-[2-(1-methylpiperidin-4-yl)ethyl]pyridin-4-yl}methyl)isoquinoline-1,6-diamine]
3000 to 10000 nM | Cn1ccnc1COc1cc(CNc2cccc3c(N)nccc23)ccn1 [Example 4423, N5-((2-((1-methyl-1H-imidazol-2-yl)methoxy)pyridin-4-yl)methyl)isoquinoline-1,5-diamine]
